Results as given in patent publication US20230405003A1, “APPLICATION OF THYMIDINE DERIVATIVE IN PREPARATION OF DRUGS” (ONQUALITY PHARMACEUTICALS CHINA LTD., priority 2020, published 2023).
Like-named read-outs stand apart in the source and are kept apart here.

Tests used:
HaCaT cells = experiment: Relief of 5-FU proliferative toxicity to HaCaT cells (CCK-8 cell survival); type: cell-based; conditions: for Cell Survival Rate (increased percentage of cell survival compared with the Group of 5-FU): 5-Fu 20 μM, HaCaT cells
Outline: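 HaCaT keratinocytes (5000–10000/well) cultured 24 h, then exposed 48 h to 5-FU alone or with thymidine derivative, or thymidine plus uridine derivative mix, versus solvent-matched blanks. Survival by CCK-8; value is % increase in survival over 5-FU alone, t-test.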

[1] = tested on: hand-foot syndrome caused by capecitabine in Balb/c mice; experiment: Mouse model of hand-foot syndrome caused by capecitabine, gel application or oral administration; type: in vivo; conditions: Mus musculus, 192 h, capecitabine 1000 mg/kg once daily, oral 200 mpk twice per day, 8 days
Protocol: A mouse animal model was established. 6-week aged male Balb/c mice were administered with capecitabine by daily gavage. After a few days, mice's paws developed hand-foot syndrome symptoms (similar to the results of the rat model, such as, in FIG. 13). Similar to the human body, mice developed hand-foot syndrome in the forepaws and hind paws after oral administration of capecitabine. The causes of the two are the same, and the disorder is also very similar. Therefore, mice are very good animal models for simulating the hand-foot syndrome caused by capecitabine.
After Balb/c mice were fed and adapted for one week (about 20 g), the mice were divided into groups, with 10 mice in each group. Then, the mice were subject to gavage administration. Capecitabine was dissolved in normal saline with pH=8, and the gavage dose was not greater than 0.3 mL at each time. After gavage, the blank gel was applied to the forepaws and the hind paws (about 4*0.5 cm*0.5 cm) in group of blank gel, and gels containing different drugs were applied to the forepaws and the hind paws (about 4*0.5 cm*0.5 cm) in group of administration. After application, the mice were fixed in Elizabethan collar for 4 hours. After 4 hours, the mice were released, wiped with clean water to remove any residual drug at the application site, and allowed back to the cage. The gavage and application tests are repeated daily until the group of blank has developed obvious hand-foot syndrome. […] Additionally, the thymidine derivative and the combination of thymidine derivative and uridine derivative were orally administered for observing the relief of the hand-foot syndrome. In examples 41-48, thymidine derivative and/or uridine derivative were/was applied, and in examples 49-52, thymidine derivative and/or uridine derivative were/was administered orally.
Table 5 lists the combinations of animal experiments of capecitabine and thymidine derivative (or a combination of thymidine derivative and uridine derivative) and the corresponding experimental results (wherein the data in the column of control rate=the occurrence rate of hand-foot syndrome in group of blank—the occurrence rate of hand-foot syndrome in group of administration).
The effect of thymidine derivative or a combination of thymidine derivative and uridine derivative on a mouse model with chemotherapeutic drug (capecitabine)-induced hand-foot syndrome was tested according to the method in Examples 41-52. Wherein, the drugs were administered transdermally for Examples 119-120 and orally for Examples 121-123.
The test thymidine derivative or the combination of thymidine derivative and uridine derivative, as well as the final concentration of the test compounds were shown in Table 9. Table 9 lists the combinations of animal experiments of capecitabine and the thymidine derivative gel (or a compounded gel of thymidine derivative and uridine derivative) and the corresponding experimental results (wherein the data in the column of control rate=the occurrence rate of hand-foot syndrome in Group of blank—the occurrence rate of hand-foot syndrome in Group of administration).

[2] = tested on: 5-FU-induced diarrhea in Balb/c mice; experiment: 5-FU-induced diarrhea mouse model (175 mg/kg single i.p.); type: in vivo; conditions: 5-FU 175 mg/kg single i.p.; for Survival Rate / Average Diarrhea Grade: 6 days; for Average Diarrhea Grade: score 0-4
Protocol: 7-8-week-old male Balb/c mice were used to establish a 5-FU induced diarrhea model to test the effect of the thymidine derivative or the combination of thymidine derivative and uridine derivative on the relief of diarrhea.
Modeling dose of 5-Fu: 175 mg/kg; single administration, intraperitoneal injection (ip.);
Administration mode of the compound to test (thymidine derivative or combination of thymidine derivative and uridine derivative): single administration, by gavage, advance administration of the compound to test at various time points prior to intraperitoneal injection of 5-FU. The compound to test was administered 1 h prior to the administration of 5-FU, a certain amount of 5-FU was injected intraperitoneally 1 h later, and the compound to test was administered once again 7 h after the injection of 5-FU.
The mice were fed and adapted for one week, and then divided into groups, with 10 mice in each group for administration test.
The mice in the Group of blank was injected with 0.9% NaCl, and evaluated the effect by observing the change of diarrhea grade, food uptake, and weight change. The severity of diarrhea was scored in accordance with the following standards: 0: normal feces, 1: soft feces, 2: slightly wet, soft feces, 3: wet, unformed feces, with moderate coloration in perianal region, 4: watery feces with heavy coloration of hair in perianal region. The severity of diarrhea was evaluated by occurrence scores of various grades of diarrhea (Scores 0 to 4) and average score of diarrhea. […] The models were stable, and satisfied the experimental requirements.
5-FU was dissolved in a 0.9% NaCl solution, the mice in the model group and the treatment group were all i.p. injected at a dose of 175 mg/kg/d, […]. While modeling of injection administration of 5-FU, the thymidine derivative or the combination of thymidine derivative and uridine derivative was administered by gavage, and the compounds to test were dissolved in a PBS solution containing 5% DMSO+1% HPMC. Body weight was weighed daily to count the weight change (Δ % BW, the weight changes recorded in the table were the values on Day 6), and the food was weighed daily to calculate the food uptake. The mice were daily observed for their clinical status, e.g., activity, diarrhea, hair, fighting, etc. After 6 days, the experiments were completed and statistically analyzed for the results.

[3] = selected compound final concentration 0.8 μM
[4] = selected compound final concentration 1.6 μM
[5] = selected compound final concentration 3.13 μM
[6] = selected compound final concentration 6.25 μM
[7] = selected compound final concentration 12.5 μM
[8] = selected compound final concentration 25 μM
[9] = selected compound final concentration 50 μM

Compound: CCCC(=O)OC[C@H]1O[C@@H](n2cc(C)c(=O)[nH]c2=O)C[C@@H]1OC(=O)CCC [T6, ((2R,3S,5R)-3-(butyryloxy)-5-(5-methyl-2,4-dioxo-3,4-dihydropyrimidin-1(2H)-yl)tetrahydrofuran-2-yl)methyl Butyrate]
- activation at 1 µM (HaCaT cells; Homo sapiens, HaCaT, increase vs Group of 5-FU, 5-FU 20 μM, compound 1 μM, 48 h, read-out: Cell Survival Rate): 27 to 34%
- activation at 5 µM (HaCaT cells; Homo sapiens, HaCaT, increase vs Group of 5-FU, 5-FU 20 μM, compound 5 μM, 48 h, read-out: Cell Survival Rate): 40 to 48%
- activation at 10 µM (HaCaT cells; Homo sapiens, HaCaT, increase vs Group of 5-FU, 5-FU 20 μM, compound 10 μM, 48 h, read-out: Cell Survival Rate): 55 to 65%
- activation at 50 µM (HaCaT cells; Homo sapiens, HaCaT, increase vs Group of 5-FU, 5-FU 20 μM, compound 50 μM, 48 h, read-out: Cell Survival Rate): 65 to 75%
- activation at 100 µM (HaCaT cells; Homo sapiens, HaCaT, increase vs Group of 5-FU, 5-FU 20 μM, compound 100 μM, 48 h, read-out: Cell Survival Rate): 68 to 75%
- activation at 200 µM (HaCaT cells; Homo sapiens, HaCaT, increase vs Group of 5-FU, 5-FU 20 μM, compound 200 μM, 48 h, read-out: Cell Survival Rate): 85 to 95%
- inhibition in vivo at 200 mg/kg ([1]; read-out: Control Rate Forepaws): 65%
- inhibition in vivo at 200 mg/kg ([1]; read-out: Control Rate Hindpaws): 77.5%

Compound: Cc1cn([C@H]2C[C@H](O)[C@@H](COC(=O)C(C)c3cccc(C(=O)c4ccccc4)c3)O2)c(=O)[nH]c1=O (stereo partly shown) [T33]
- Cell Survival Rate (increased percentage of cell survival compared with the Group of 5-FU) (HaCaT cells; [3]): 36%-42%
- Cell Survival Rate (increased percentage of cell survival compared with the Group of 5-FU) (HaCaT cells; [4]): 37%-44%
- Cell Survival Rate (increased percentage of cell survival compared with the Group of 5-FU) (HaCaT cells; [5]): 39%-49%
- Cell Survival Rate (increased percentage of cell survival compared with the Group of 5-FU) (HaCaT cells; [6]): 36%-42%
- Cell Survival Rate (increased percentage of cell survival compared with the Group of 5-FU) (HaCaT cells; [7]): 55%-63%
- Cell Survival Rate (increased percentage of cell survival compared with the Group of 5-FU) (HaCaT cells; [8]): 64%-71%
- Cell Survival Rate (increased percentage of cell survival compared with the Group of 5-FU) (HaCaT cells; [9]): 66%-73%
- Cell Survival Rate (increased percentage of cell survival compared with the Group of 5-FU) (HaCaT cells; selected compound final concentration 100 μM): 55%-63%
- Δ % BW (on Day 6) ([2]; 50 mpk gavage): 4.18% ± 0.56%
- Survival Rate ([2]; 50 mpk gavage): 100%
- Average Diarrhea Grade ([2]; 50 mpk gavage): 1

Compound: CCC(CC)COC(=O)[C@H](C)N[P@](=O)(OC[C@H]1O[C@@H](n2cc(C)c(=O)[nH]c2=O)C[C@@H]1O)Oc1ccccc1 [T48]
- Cell Survival Rate (increased percentage of cell survival compared with the Group of 5-FU) (HaCaT cells; [3]): 26%-34%
- Cell Survival Rate (increased percentage of cell survival compared with the Group of 5-FU) (HaCaT cells; [4]): 38%-46%
- Cell Survival Rate (increased percentage of cell survival compared with the Group of 5-FU) (HaCaT cells; [5]): 41%-48%
- Cell Survival Rate (increased percentage of cell survival compared with the Group of 5-FU) (HaCaT cells; [6]): 66%-73%
- Cell Survival Rate (increased percentage of cell survival compared with the Group of 5-FU) (HaCaT cells; [7]): 68%-76%
- Cell Survival Rate (increased percentage of cell survival compared with the Group of 5-FU) (HaCaT cells; [8]): 77%-85%
- Cell Survival Rate (increased percentage of cell survival compared with the Group of 5-FU) (HaCaT cells; [9]): 69%-76%
- Δ % BW (on Day 6) ([2]; 15 mpk gavage): −1.97% ± 0.67%
- Survival Rate ([2]; 15 mpk gavage): 100%
- Average Diarrhea Grade ([2]; 15 mpk gavage): 1.3

Compound: CCC(CC)COC(=O)[C@H](C)N[P@@](=O)(Oc1ccccc1)O[C@H]1C[C@H](n2cc(C)c(=O)[nH]c2=O)O[C@@H]1CO [T49]
- Cell Survival Rate (increased percentage of cell survival compared with the Group of 5-FU) (HaCaT cells; [3]): 35%-42%
- Cell Survival Rate (increased percentage of cell survival compared with the Group of 5-FU) (HaCaT cells; [4]): 56%-63%
- Cell Survival Rate (increased percentage of cell survival compared with the Group of 5-FU) (HaCaT cells; [5]): 72%-79%
- Cell Survival Rate (increased percentage of cell survival compared with the Group of 5-FU) (HaCaT cells; [6]): 68%-74%
- Cell Survival Rate (increased percentage of cell survival compared with the Group of 5-FU) (HaCaT cells; [7]): 36%-44%
- Δ % BW (on Day 6) ([2]; 15 mpk gavage): −1.97% ± 0.67%
- Survival Rate ([2]; 15 mpk gavage): 80%
- Average Diarrhea Grade ([2]; 15 mpk gavage): 0.75
